Assay results from paper PMC5025780, “Copper(II) ions affect the gating dynamics of the 20S proteasome: a molecular and in cell study” (Scientific Reports, 2016).
Where two headings read alike, the source gives them in different places.

Columns and labels:
[1] = biological target: T1, human 20S proteasome (hCP), ChT-L activity; experiment: ChT-L peptidase activity of isolated hCP (Suc-LLVY-AMC fluorogenic substrate); type: biochemical
T1 construct: purchased Boston Biochem (Cambridge, MA, USA)
Source text: (§1) Purified human 20S proteasome (hCP) and the fluorogenic substrates Suc-LLVY-AMC, Z-Leu-Leu-Glu-AMC, and Ac-Arg-Leu-Arg-AMC used to assay the ChT-L, T-L, and C-L activity, were from Boston Biochem (Cambridge, MA, USA). Bathocuproinedisulfonic acid disodium salt (BCS), dithiothreitol (DTT), N-Acetyl-L-Cysteine (NAC), Sodium dodecylsulphate (SDS) as well as CuCl2 and Zn(NO3)2 were from Sigma-Aldrich (St. Louis, MO). Proteasome inhibitors Epoxomicin were obtained from Enzo Life Science. Wild type 20S proteasome isolated from Saccharomices Cerevisiae (yCP) and a mutant (α3ΔN) where nine residues of the N-terminal tail of the α3 subunit are deleted to provide a permanently open-gate conformations were isolated as described elsewhere.
(§2) Peptidase activities of hCP (2 nM) were assayed on in 50 μL Tris 25 mM pH 7.6, at 37 °C with 100 μM of the fluorogenic substrate. hCP was incubated with Cu(II)/Zn(II) ions for 1 h prior activity assays. The fluorescence signal activated by peptide cleavage was recorded at 440 nm (excitation at 360 nm) for 45 min, by a Varioskan (Thermo^©) plate reader in 384 multiwell plates. Three replicates were performed for each data point. Data were reported as normalized percentages of residual activity. The potency (IC50) was calculated from the value of the dose response plot corresponding at a fractional activity of 50%. The IC50 values were determined using a non linear fit of experimental data in according to equation: […]
(§3) The midpoint of this function occurs at a fractional activity value of 50%, corresponding to half inhibition of the target enzyme. The IC50 values and their standard errors were deduced from the fitting. To evaluate if copper is a reversible PI, we measured the ChT-L activity of hCP incubated with Cu(II) (2.20 μM) before and after addition of an equimolar amount of EDTA.

[2] = biological target: T2, human 20S proteasome (hCP), T-L activity; experiment: T-L peptidase activity of isolated hCP (fluorogenic substrate); type: biochemical
T2 construct: purchased Boston Biochem (Cambridge, MA, USA)
Source text: as §1, §2, §3

[3] = tested on: T3, human 20S proteasome (hCP); experiment: Native gel electrophoresis of purified hCP (assembly); details: 1 h incubation with 1 and 5 μM Cu(II)
T3 construct: purchased Boston Biochem (Cambridge, MA, USA)
Experimental: Currently, there are only few molecules known to inhibit the ChT-L, C-L, and T-L proteasome activities to the same extent. In principle, these agents are thought to inactivate the CP by upstream events involving protein damage (e.g. oxidation, disassembling of the enzyme into α and β subunits)[29][30] or, as recently reported, to allosteric effects involving proteasome gating. To address these issues, we performed native gel electrophoresis of purified hCP after 1 h incubation with 1 and 5 μM Cu(II) ions (Fig. 1B). […] Thus, we can exclude that Cu(II)-treated hCP could disassemble in α and β subunits. […] To this aim we i) assayed the presence of Cu(I) species in Cu(II)-loaded hCP samples by UV spectroscopy using bathocuproine disulfonic acid sodium salt (BCS) (see Figure S1 of Supporting Information) and ii) monitored the ROS production using fluorescein as a probe whose fluorescence intensity decreases upon reacting with ROS[32]. […]
Proteasome-enriched fractions were subjected to non denaturing native gel electrophoresis, as described elsewhere. […] Peptidolytic activity of proteasome-enriched fractions from cell lysates was evaluated after incubating the gels in a Suc-LLVY-AMC substrate dissolved in 50 mM Tris pH 8.0, 5 mM MgCl2, 1 mM DTT, 1 mM ATP, at 37 °C for 15 min. […] Images of the gels were acquired by Chemidoc (Biorad), and fluorescent bands were quantified by using the Image J software.

[4] = tested on: ubiquitinated proteins in Hela cells; experiment: Western blot of polyubiquitinated proteins in HeLa cells; type: cell-based, human; details: 20 and 80 μM Cu(II), 24 hours
Experimental: After 24 h of copper(II) treatment (20–80 μM), HeLa cells were washed with cold PBS, and lysed with 100 μL of RIPA buffer for 5 minutes at 4 °C, sonicated and centrifuged for 10 minutes at 4 °C (1400 rpm). The protein content of lysates is quantified using the BCA method, (protein assay kit, BioRad). Western blotting analysis for polyUb chains was performed on total protein extracts ([…]). Samples were loaded onto 4–12% bis-Tris gel, (Invitrogen). After separation, proteins were transferred onto a nitrocellulose membrane. Membranes were blotted at 4 °C O/N with the following primary antibodies: rabbit monoclonal anti-polyubiquitin (linkage specific K48) (1:2500, Abcam), and mouse anti-β-actin (1:1000, Sigma Aldrich). Secondary goat anti-rabbit labeled with IRDye 680 (1:25.000 Li-COR Biosciences) and goat anti-mouse labeled with IRDye 800 (1:25.000 Li-COR Biosciences) were used at RT for 45 min. Hybridization signals were detected with the Odyssey Infrared Imaging System (LI-COR Biosciences).

[5] = tested on: HeLa cells; set-up: method as in PMID 9057888, PMID 21584299; details: Cu(II)-supplemented media up to 100 μM; cited from earlier work

Question: What does the source list for [Cl][Cu][Cl] [Cu(II), CuCl2]?
Answer: IC50 ([1]; hCP 2 nM, 1 h preincubation with ions, Tris 25 mM pH 7.6, 37 °C, no SDS, read-out: IC50 ChT-L): 1190 nM; Recovery of ChT-L activity after EDTA addition (reversibility) ([1]; hCP incubated with Cu(II) 2.20 μM, equimolar EDTA added): did not evidence any recovery of the ChT-L activity; IC50 ([1]; in the presence of 0.018% SDS, other conditions unmodified, read-out: IC50 ChT-L, Cu(II) + SDS): 730 nM; IC50 ([2]; hCP 2 nM, 1 h preincubation with ions, Tris 25 mM pH 7.6, 37 °C, no SDS, read-out: IC50 T-L): 1450 nM; IC50 ([2]; in the presence of 0.018% SDS, other conditions unmodified, read-out: IC50 T-L, Cu(II) + SDS): 1350 nM; hCP assembly by native gel [3]: only a single band is present at 700 kDa; Accumulation of ubiquitinated proteins [4]: enhanced the accumulation of ubiquitinated proteins; HeLa cell growth [5]: not inhibited
